Test results as given in patent US12180499B2, “Compositions and methods for impeding transcription of expanded microsatellite repeats” (University of Florida Research Foundation, Inc., priority 2016, dated 2024).
Entries after “also recorded” stand apart in the source; their conditions may differ.

What was measured:
[1] = test system: MBNL1 exon 5; test: MBNL1 exon 5 splicing minigene reporter in HeLa; format: cell-based, human; details: with dCas9
Text: (§1) dCas9-mediated transcriptional inhibition rescues splicing defects and blocks RAN translation in cell-based models of DM and C9ALS/FTD. Downstream symptoms of many repeat expansion diseases are caused by the expression of toxic RNA species, which sequesters RNA binding proteins necessary for cellular functions, causing downstream changes to the transcriptome and proteome. To assess whether dGas9-mediated transcriptional silencing can rescue molecular and cellular phenotypes in disease models, a HeLa cell-based model of DM1 was used, in which (CUG)480 (SEQ ID NO:26) repeats are expressed from a plasmid. […] Rescue of MBNL-dependent splicing misregulation, characteristic of DM1 cells was measured, using a splicing minigene reporter containing MBNL1 exon 5. The percent spliced in (psi, Ψ) of this exon is regulated by MBNL proteins, and changes from 10% in healthy HeLa cells to −70% in cells expressing (CUG)480 repeats. Co-transfection of dCas9 and (CAG)6 (SEQ ID NO: 1) gRNA partially rescued splicing dysregulation, reducing Ψ to −35% (FIG. 8C). […] Splicing defects in DM1 depend on total CUG repeat load; Ψ values for MBNL1 exon 5 increased with the length of the CTG repeat tract transfected into cells (FIG. 8D).

[2] = test system: HeLa cells expressing (CUG)480 repeats; test: FISH-IF of CUG RNA foci in HeLa cell-based model of DM1; set-up: species or system human; details: with dCas9; vs control gRNA
Text: as §1
Plasmid DNA transfections of HeLa and HEK293T cells were performed using Trans-IT LT1 (MirusBio) as per manufacturer's instructions. […]

[3] = test system: poly-Ala RAN peptides expressed from DM1 CTG repeats; test: Western blot of FLAG-tagged poly-Ala RAN peptide in HEK293T; format: cell-based, human
Text: The CTG, CCTG, and G4C2 repeats associated with DM1, DM2, and C9ALS/FTD, respectively, undergo repeat-associated non-ATG (RAN) translation. dCas9-mediated transcriptional repression could also yield reduced RAN protein abundance. […] Importantly, RAN protein was not reduced in the presence of (CAG)6 gRNA alone without dCas9 (FIG. 14D). […] To test effects of dCas9 on levels of poly-GlyPro translated from G4C2 repeats, two gRNAs were designed with NGG PAMs: (C4G2)3 (SEQ ID) NO: 10) that would target the non-template strand and (G4C2)3 (SEQ ID NO: 11) that would target the template strand.
HEK293Tcells were transfected with one of the following plasmids that express tagged RAN translated products: pcDNA-6×Stop-(CTG)150-3×(FLAG-HA-cMyc-His), pcDNA-6×Stop-(CCTG)137-3×(FLAG-HA-cMyc-His) or pcDNA-6×Stop-(G4C2)120-3×(FLAG-HA-cMyc-His). These cells were co-transfected with the pXdCas9 plasmid expressing the dCas9 protein, and U6 expression vectors expressing the control gRNA or gRNA's targeting either strand of the CTG, CCTG and G4C2 repeats ((CAG)6 (SEQ ID NO:1) or (CUG)6 (SEQ ID NO:3) gRNAs, (CAGG)5 (SEQ ID NO:6), (AGGC)5 (SEQ ID NO:7), (GCAG)5 (SEQ ID NO:9), or (CCUG)5 (SEQ ID NO: 15) gRNAs and (C4G2)3 (SEQ ID NO:10) or (G4C2)3 (SEQ ID NO:11) gRNAs, respectively).
72 hours after transfection, cells in each well of a 12-well tissue culture plate were gently rinsed 1× with PBS and lysed in 200 ul of RIPA Buffer (50 mM Tris-Cl pH 7.4, 150 mM NaCl, 0.1% Na-Deoxycholate, 1% NP-40, 0.5% SDS) with protease inhibitors for 30 minutes on ice. Genomic DNA was sheared by 8-10 passages through a 21-gauge needle. The resulting lysate was centrifuged at 18,000×g for 15 min and the supernatant was collected. The protein concentration of the lysate was determined using Pierce™ BCA Protein Assay. […] After the membrane was incubated with anti-mouse and anti-rabbit HRP (1:10,000) for 2 hours at room temperature, the bands were detected using the SuperSignal™ West Femto Maximum Sensitivity Substrate as per manufacturers protocol (Zu et al., 2011).

(CAG)6 gRNA: guide RNA SEQ ID NO:1 targeting CTG repeats (non-template strand, CAG PAM), co-expressed with deactivated SpCas9 (guide CAGCAGCAGCAGCAGCAG; listed as DNA, chemistry not fully specified; listed as Mus musculus)
percent spliced in (Ψ) of MBNL1 exon 5 ([1]; HeLa expressing (CUG)480 repeats): −35% | rescue of MBNL1 exon 5 splicing ([1]; CTG repeat lengths up to 960): splicing rescue was observed; also recorded: rescue could be achieved even in the presence of 960 repeats | number of foci per cell [2]: reduction in the number of foci per cell | percentage of cells showing CUG-containing RNA foci [2]: reduction in the percentage of cells showing CUG-containing RNA foci; also recorded: reduction in the percentage of cells with RNA foci | FLAG-tagged poly-Ala RAN peptide level ([3]; gRNA alone without dCas9): not reduced | FLAG-tagged poly-Ala RAN peptide level ([3]; with dCas9, HEK293T): dramatically reduced
